Test results from patent US20170290774A1, “NEUROKININ-1 RECEPTOR ANTAGONIST COMPOSITION FOR TREATMENT OF DISEASES AND CONDITIONS OF THE RESPIRATORY TRACT” (PLUS VITECH, S.L., priority 2014, published 2017).

Test system: Fibrosis
Test: Area occupied by fibrosis in hematoxylin/eosin sections of sodium hypochlorite aerosol-treated rabbits
Type: in vivo, New Zealand albino rabbits
Excerpt: It is known that the factors TGF-α, TGF-β 1, TGF-β 2, TGF-β 3, SPARC, MMP-3; MMP-7, MMP-9, MMP-11, MMP-13 and MMP-14, TGF-β, NF-kB, EGF, MMP-9, VEGF and TNF-α which are produced by lung cells (pneumocytes, fibroblasts and vascular endothelial cells) and inflammatory cells (macrophages, lymphocytes and polymorphonuclear leukocytes) are involved in the pathophysiology and development of said respiratory tract diseases. […] Herein, 27 New Zealand albino rabbits (New Zealand White Rabbit) with an initial average weight about 3 kg were used in this example. All subjects were administered an aerosol of a solution consisting of a mixture of water and sodium hypochlorite (35 g sodium hypochlorite per liter of water) at a rate of 5 mL of said solution by inhalation three times a day for 7 days (days 1 to 7 of experimentation). Subsequently, from days 3 to 7, a group of 3 rabbits (Group 1) was administered an oral dose of 10 mg/kg body weight per day, another group of 3 rabbits (Group 2) was administered an oral dose of 40 mg/kg body weight per day, a third group (Group 3) was administered an oral dose of 80 mg/kg body weight per day and a fourth group (Group 4) was administered an oral dose of 100 mg/kg body weight per day. […] This mixture was administered as an aerosol by inhalation, also from days 3 to 7, to a group of 3 rabbits (group 5) at a dose of 0.05 mg/kg body weight per day, to another group of three rabbits (Group 6) at a dose of 0.1 mg/kg body weight per day, to another group of three rabbits (Group 7) at a dose of 0.2 mg/kg body weight per day and to another group of three rabbits (Group 8) at a dose of 0.4 mg/kg body weight per day. A placebo consisting only of olive oil was administered from days 3 to 7 to a control group of 3 rabbits (placebo group). In parallel, 3 rabbits were kept under identical conditions but were not administered any treatment nor the aforementioned sodium hypochlorite solution (control group). […] On day 7 of the experiment all animals were euthanized and necropsied. […] Samples were taken at the peripheral level of the lung parenchyma, just below the pleural surface. Tissue samples were also taken from the nasal cavity, pharynx, larynx and bronchi. Immunohistochemistry studies were performed for all samples to evaluate the levels of the markers TGF-α, TGF-β 1, TGF-β 2, TGF-β 3 SPARC, MMP-3; MMP-7, MMP-9, MMP-11, MMP-14, TGF-β, TNF-α and VEGF. The samples were then allowed to cool to room temperature over 10 minutes. Endogenous peroxidase activity was blocked by treatment with 3% hydrogen peroxide over 30 min at room temperature. […] In order to verify the expression of NK1 receptors, the cell samples were incubated in the presence of anti-NK1 antibodies ([…], Sigma-Aldrich) diluted 1:1000 at 4° C. overnight. After this time they were washed in 0.05M Tris buffer at room temperature. Subsequently, Envision System-HRP (Dako) reagents were added for 30 min at room temperature. Once this time had expired, the samples were again washed with 0.05 M Tris buffer, and immunoreactivity was visualized by light microscopy with a chromogenic solution with 3,3'-diaminobenzidine (DAB+; Dako, USA). In order to differentiate the cell nuclei, these were lightly stained with haematoxylin. Samples that were not incubated with the primary antibody, but wherein this was replaced by a non-immune serum were used as negative controls. In order to evaluate markers in these immunohistochemical assays, specific primary antibodies were used against them at a concentration 1:1000, as detailed in Table 12. Furthermore, for each of the sampled sections were placed on slides and stained with haematoxylin-eosin before subsequently being deparaffinised by immersion in xylene and then rehydrated through immersion in a series of solutions containing decreasing concentrations of ethanol and, finally, immersing them in water, eosin (20 seconds) and hematoxylin (40 seconds). All experiments were performed in sextuplicate. […]

Structure (SMILES): C[C@@H](OC1OCCN(Cc2nc(=O)[nH][nH]2)C1c1ccc(F)cc1)c1cc(C(F)(F)F)cc(C(F)(F)F)c1 (stereo in doubt) [Aprepitant, 5-([(2R,3S)-2-((R)-1-[3,5-bis(trifluoromethyl)phenyl]ethoxy)-3-(4-fluorophenyl)morpholino]methyl)-1H-1,2,4-triazol-3(2H)-one]
- Percent increase in Fibrosis with respect to the control group (bronchial tissue, Group 1, oral 10 mg/kg per day): 2,500.10%
- Percent increase in Fibrosis with respect to the control group (bronchial tissue, Group 2, oral 40 mg/kg per day): 2,000.00%
- Percent increase in Fibrosis with respect to the control group (bronchial tissue, Group 3, oral 80 mg/kg per day): 1,500.00%
- Percent increase in Fibrosis with respect to the control group (bronchial tissue, Group 4, oral 100 mg/kg per day): 1,000.00%
- % Med G5/C: percent increase in Fibrosis with respect to the control group (bronchial tissue, Group 5): 2,000.00%
- % Med G6/C: percent increase in Fibrosis with respect to the control group (bronchial tissue, Group 6): 1,000.00%
- % Med G7/C: percent increase in Fibrosis with respect to the control group (bronchial tissue, Group 7): 500.00%
- % Med G8/C: percent increase in Fibrosis with respect to the control group (bronchial tissue, Group 8): 100.50%
- Percent increase in Fibrosis with respect to the control group (laryngeal tissue, Group 1, oral 10 mg/kg per day): 250.50%
- Percent increase in Fibrosis with respect to the control group (laryngeal tissue, Group 2, oral 40 mg/kg per day): 225.70%
- Percent increase in Fibrosis with respect to the control group (laryngeal tissue, Group 3, oral 80 mg/kg per day): 200.57%
- Percent increase in Fibrosis with respect to the control group (laryngeal tissue, Group 4, oral 100 mg/kg per day): 150.70%
- Percent increase in Fibrosis with respect to the control group (laryngeal tissue, Group 5, inhalation 0.05 mg/kg per day): 375.50%
- Percent increase in Fibrosis with respect to the control group (laryngeal tissue, Group 6, inhalation 0.1 mg/kg per day): 275.45%
- Percent increase in Fibrosis with respect to the control group (laryngeal tissue, Group 7, inhalation 0.2 mg/kg per day): 200.60%
- Percent increase in Fibrosis with respect to the control group (laryngeal tissue, Group 8, inhalation 0.4 mg/kg per day): 125.40%
- Percent increase in Fibrosis with respect to the control group (lung tissue, Group 1, oral 10 mg/kg per day): 1,272.22%
- Percent increase in Fibrosis with respect to the control group (lung tissue, Group 2, oral 40 mg/kg per day): 683.33%
- Percent increase in Fibrosis with respect to the control group (lung tissue, Group 3, oral 80 mg/kg per day): 611.11%
- Percent increase in Fibrosis with respect to the control group (lung tissue, Group 4, oral 100 mg/kg per day): 516.67%
- Percent increase in Fibrosis with respect to the control group (lung tissue, Group 5, inhalation 0.05 mg/kg per day): 1,127.78%
- Percent increase in Fibrosis with respect to the control group (lung tissue, Group 6, inhalation 0.1 mg/kg per day): 433.33%
- Percent increase in Fibrosis with respect to the control group (lung tissue, Group 7, inhalation 0.2 mg/kg per day): 233.33%
- Percent increase in Fibrosis with respect to the control group (lung tissue, Group 8, inhalation 0.4 mg/kg per day): 161.11%
- Percent increase in Fibrosis with respect to the control group (nasal cavity tissue, Group 1, oral 10 mg/kg per day): 513.89%
- Percent increase in Fibrosis with respect to the control group (nasal cavity tissue, Group 2, oral 40 mg/kg per day): 375.00%
- Percent increase in Fibrosis with respect to the control group (nasal cavity tissue, Group 3, oral 80 mg/kg per day): 300.00%
- Percent increase in Fibrosis with respect to the control group (nasal cavity tissue, Group 4, oral 100 mg/kg per day): 300.00%
- Percent increase in Fibrosis with respect to the control group (nasal cavity tissue, Group 5, inhalation 0.05 mg/kg per day): 700.00%
- Percent increase in Fibrosis with respect to the control group (nasal cavity tissue, Group 6, inhalation 0.1 mg/kg per day): 319.44%
- Percent increase in Fibrosis with respect to the control group (nasal cavity tissue, Group 7, inhalation 0.2 mg/kg per day): 163.89%
- Percent increase in Fibrosis with respect to the control group (nasal cavity tissue, Group 8, inhalation 0.4 mg/kg per day): 147.22%
- Percent increase in Fibrosis with respect to the control group (pharyngeal tissue, Group 1, oral 10 mg/kg per day): 489.54%
- Percent increase in Fibrosis with respect to the control group (pharyngeal tissue, Group 2, oral 40 mg/kg per day): 457.45%
- Percent increase in Fibrosis with respect to the control group (pharyngeal tissue, Group 3, oral 80 mg/kg per day): 380.00%
- Percent increase in Fibrosis with respect to the control group (pharyngeal tissue, Group 4, oral 100 mg/kg per day): 275.00%
- Percent increase in Fibrosis with respect to the control group (pharyngeal tissue, Group 5, inhalation 0.05 mg/kg per day): 480.30%
- Percent increase in Fibrosis with respect to the control group (pharyngeal tissue, Group 6, inhalation 0.1 mg/kg per day): 258.34%
- Percent increase in Fibrosis with respect to the control group (pharyngeal tissue, Group 7, inhalation 0.2 mg/kg per day): 152.23%
- Percent increase in Fibrosis with respect to the control group (pharyngeal tissue, Group 8, inhalation 0.4 mg/kg per day): 128.32%
